The source of these data is US20140005160A1, “Method for Treating Refractory Cancer” (priority 2010, published 2014).

In data set [1] the test system is human breast cancer cell line MX-1. Nature of the data set: ATCC MTT Cell Proliferation Assay, MX-1. It counts as cell-based. The conditions noted are these: MX-1, 72 hours.
Description: (§6) Stock cultures were allowed to grow to 70-80% confluence for this study. […] ZR-75-1 plates were seeded with 3,000 cells/well, and the cells were grown in RPMI1640 medium containing 1% (1M HEPES), 1% sodium pyruvate, 1% (45% Glucose), 10% FBS and 1% penicillin/strep/glutamine. Cultures were maintained in a 37° C. humidified 5% CO2/95% air atmosphere. […] 100 μl of medium was removed from each well at 72 hours post-treatment and 10 μl MTT reagent was added to each well. The plates were incubated at 37° C. for 4 hours and then 100 μl of detergent was added. The plates were left overnight at room temperature in the dark and was read on a plate reader using SoftMax® Pro (version 5.2, Molecular Devices).
(§7) The absorbance data was analyzed as follows: Absorbance values were converted to Percent of Control and plotted against test agent concentrations for IC50 calculations using SoftMax® Pro (version 5.2, Molecular Devices). […] Percent of Control values were calculated by dividing the absorbance values for each test well by the No Drug Control average (column 11 values; cells+vehicle control) and multiplying by 100. Plots of Compound Concentration versus Percent of Control were analyzed using the 4-parameter equation to obtain IC50 values and other parameters that describe the sigmoidal dose response curve. […]
The test system of data set [2] is human breast carcinoma cell line ZR-75-1. As to the kind of experiment: ATCC MTT Cell Proliferation Assay, ZR-75-1. The conditions noted are these: for IC50: ZR-75-1, 72 hours, MTT; for IC50 Ratio (ZR-75-1/MX-1): ratio of IC50 in ZR-75-1 to MX-1. It counts as cell-based.
Description: as §6
The absorbance data was analyzed as follows: Absorbance values were converted to Percent of Control and plotted against test agent concentrations for IC50 calculations using SoftMax® Pro (version 5.2, Molecular Devices). The plate blank signal average was subtracted from all wells prior to calculating the Percent of Control. Percent of Control values were calculated by dividing the absorbance values for each test well by the No Drug Control average (column 11 values; cells+vehicle control) and multiplying by 100. Plots of Compound Concentration versus Percent of Control were analyzed using the 4-parameter equation to obtain IC50 values and other parameters that describe the sigmoidal dose response curve.
The IC50 value for the test agent was estimated by curve-fitting the data using the following four parameter-logistic equation:
wherein “Top” is the maximal % of control absorbance (100%), “Bottom” is the minimal % of control absorbance at the highest agent concentration (down to zero), Y is the Percent of Control absorbance, X is the test agent Concentration, IC50 is the concentration of agent that inhibits cell growth by 50% compared to the control cells, n is the slope of the curve.
For data set [3], the system named is human renal cell line A498. The conditions noted are these: A498, same manner as Example 2. An excerpt:
See e.g., Mahalingam et al., Clin. Cancer Res., 16(1):141-153 (2010).

The test system of data set [4] is bcrp-overexpressing line MDA-MB-231/bcrp. The conditions noted are these: 72 hours, EZ4U MTT. The procedure:
(§1) Breast cancer cell line MDA-MB-231 and its corresponding bcrp-overexpressing line MDA-MB-231/bcrp were plated (2×10^3 cells in 100 μl/well) in 96-well plates and allowed to recover for 24 hours. […] The proportion of viable cells was determined by MTT assay following the manufacturer's recommendations (EZ4U, Biomedica, Vienna, Austria), and IC50 values were calculated. […] BCRP-overexpression confers resistance to drugs such as irinotecan, topotecan, mitoxantrone, methotrexate, camptothecins, gefitinib and imatinib etc. See Fojo & Menefee, Ann. Oncol., 18 (Supplement 5):v3-v8 (2007).

Data set [5] concerns breast cancer cell line MDA-MB-231. The conditions noted are these: MDA-MB-231, 72 hours, EZ4U MTT (Table 4). The procedure:
as §1

The test system is the same in data set [6]. Nature of the data set: ATCC MTT Cell Proliferation Assay, MDA-MB-231. The conditions noted are these: for IC50: MDA-MB-231, same manner as Example 2 (Table 3); for IC50 Ratio (MDA-MB-231/MCF-7): ratio of IC50 in MDA-MB-231 to MCF-7. It counts as cell-based.
The test system of data set [7] is human lung carcinoma cell line A549. As to the kind of experiment: ATCC MTT Cell Proliferation Assay, A549. It counts as cell-based. The conditions noted are these: for IC50 Ratio (A549/H1975): Table 5, ratio of IC50 in A549 to H1975.
Data set [8] relates to MVP- and MRP1-overexpressing subline SW-1573/2R120. The conditions noted are these: PGP/MRP-1-overexpressing cell line (SW-1573/2R120), 72 hours, EZ4U MTT. On the procedure: (§2) The alveolar epithelial cell carcinoma cell line SW-1573 and its MVP- and MRP1-overexpressing subline SW-1573/2R120 were grown in DMEM medium supplemented with 10% fetal calf serum. See Elbling et al., Cytometry, 31:187-198 (1998). Cells were plated (2×10^3 cells in 100 μl/well) in 96-well plates and allowed to recover for 24 hours. […] The proportion of viable cells was determined by MTT assay following the manufacturer's recommendations (EZ4U, Biomedica, Vienna, Austria). […] PGP/MRP-1-overexpression confers resistance to drugs such as vincristine, vinblastine, vinorelbine, taxol, docetaxel, etoposide, mitoxantrone, doxorubincin, epirubicin, topotecan, irinotecan, methotrexate, and imatinib etc. See Fojo & Menefee, Ann. Oncol., 18 (Supplement 5):v3-v8 (2007).

Data set [9] has as its system alveolar epithelial cell carcinoma cell line SW-1573. The conditions noted are these: SW1573 cell line, 72 hours, EZ4U MTT. On the procedure: as §2
Data set [10] has as its system human prostate cancer cell line LNCaP (prostate carcinoma). The conditions noted are these: same manner as Example 2. An excerpt:
(§3) In addition, the IC50 values of docetaxel in the LNCaP and PC-3 cell lines were obtained from published literature. […] See Domingo-Domenech et al., Clin. Cancer Res., 12(18):5578-5586 (2006); Blagosklonny et al., J. Urol., 163(3):1022-6 (2000).

The subject of data set [11] is human prostate cancer cell line PC-3 (prostate carcinoma).
Description: as §3

Data set [12] deals with human melanoma cell line A375. As to the kind of experiment: ATCC MTT Cell Proliferation Assay, A375.
Description: as §6, §7
Data set [13] relates to human lung carcinoma cell line NCI-H322M. Nature of the data set: ATCC MTT Cell Proliferation Assay, NCI-H322M. It counts as cell-based. The conditions noted are these: for IC50: NCI-H322M (KRAS wild type), same manner as Example 2. An excerpt: (§4) Table 2 summarizes the results.
Data set [14] has as its system HCT-116 p53 (+/+). The conditions noted are these: Colon HCT-116 p53 (+/+), 72 hours exposure, MTT. On the procedure: (§5) The colon carcinoma cell line HCT116 (HCT-116 p53 (+/+)) and the corresponding subline with deleted p53 genes (HCT-116 p53 (−/−)) were grown in McCoy's culture medium with 10% FCS. […] For cytotoxicity assays, cells were plated (2×10^3 cells in 100 μl/well) in 96-well plates and allowed to recover for 24 hours. […] The proportion of viable cells was determined by MTT assay following the manufacturer's recommendations (EZ4U, Biomedica, Vienna, Austria).

Data set [15] has as its system HCT-116 p53 (−/−). The conditions noted are these: Colon HCT-116 p53 (−/−), 72 hours exposure, MTT. The procedure: as §5
The subject of data set [16] is human lung carcinoma cell line H1975. Nature of the data set: ATCC MTT Cell Proliferation Assay, H1975. It counts as cell-based. The conditions noted are these: H1975 (KRAS wild type), same manner as Example 2.
Description: as §4

The test system of data set [17] is breast cancer cell line MCF-7. Nature of the data set: ATCC MTT Cell Proliferation Assay, MCF-7. It counts as cell-based. The conditions noted are these: MCF-7, same manner as Example 2.
The test system of data set [18] is PC-3 cell line. As to the kind of experiment: Published literature IC50 of docetaxel, PC-3. It counts as cell-based, human. The conditions noted are these: ratio from published literature IC50 values.
The subject of data set [19] is PC-3 cell line. The conditions noted are these: PC-3, from Domingo-Domenech et al. 2006; cited from earlier work.
Data set [20] relates to LNCaP cell line. The conditions noted are these: from Domingo-Domenech et al. 2006; cited from earlier work.

Structures are written as SMILES. Like-named read-outs stand apart in the source and are kept apart here.

As usually defined, the IC50 is the midpoint of a concentration-inhibition curve. Take `[Ga+3].[O-]c1cccc2cccnc12.[O-]c1cccc2cccnc12.[O-]c1cccc2cccnc12`: the 50% inhibitory concentration (IC50) in [1] came to 2.06 µM; in data set [2], 1.59 µM; in data set [3] it was 32.9 µM; in data set [4], 1.8 µM; in data set [5] it was 1.6 µM; in [6] it was 0.838 µM. Moreover, the IC50 in [7] (A549 (KRAS G12S), same manner as Example 2) amounted to 1.11 µM; in data set [8], 2.1 µM; in [9], 1.7 µM; in data set [10] it was 2.19 µM; in data set [11] (PC-3, same manner as Example 2) it was 1.79 µM; in data set [12] (A375, same manner as Example 2), 1.95 µM. The 50% inhibitory concentration (IC50) in [13] is 4.95 µM; in [14], 1.8 µM; in [15], 1.7 µM; in data set [16] it was 3.55 µM; in data set [17], 1.23 µM. In [2], the “IC50 Ratio (ZR-75-1/MX-1)” value is reported as 0.77. Besides, the “IC50 Ratio (MDA-MB-231/MCF-7)” value in data set [6] turned out to be 0.681. The “IC50 Ratio (A549/H1975)” value in data set [7] amounted to 0.31; in data set [13] (Table 6, Test Drug column, row NCI-H322M) it was 1.39. Besides, the “IC50 Ratio (PC-3/LNCaP)” value in [11] (ratio of IC50 in PC-3 to LNCaP) came out at 0.82.

With `CC(=O)O[C@H]1C(=O)[C@@]2(C)[C@H]([C@H](OC(=O)c3ccccc3)[C@]3(O)C[C@H](OC(=O)[C@H](O)[C@@H](NC(=O)c4ccccc4)c4ccccc4)C(C)=C1C3(C)C)[C@]1(OC(C)=O)CO[C@@H]1C[C@@H]2O` [Paclitaxel, paclitaxel, reference compound], in data set [7], the “IC50 Ratio (A549/H1975)” value is given as 1984. The IC50 in data set [16] (Homo sapiens, NCI-H1975) was determined as 0.005 µM.

`Cn1nnc2c(C(N)=O)ncn2c1=O` [temozolomide, reference compound] yielded a 50% inhibitory concentration (IC50) in [12] (Homo sapiens, A-375) of 369 µM.

As to `O=c1[nH]cc(F)c(=O)[nH]1` [5-FU, 5-fluorouracil, reference compound], the IC50 was determined as 1.47 µM in [1] (Homo sapiens) and 31.1 µM in data set [2] (Homo sapiens). Also, the “IC50 Ratio (ZR-75-1/MX-1)” value in [2] was determined as 21.2.

In the case of `N.N.[Cl][Pt][Cl]` [Cisplatin, cisplatin, reference compound], the IC50 in [6] came to 47.1 µM; in data set [13] it was 52.3 µM; in data set [16], 11.4 µM; in data set [17], 8.01 µM. Also, in [6], the “IC50 Ratio (MDA-MB-231/MCF-7)” value was determined as 5.88. Also, the “IC50 Ratio (NCI-H322M/H1975)” value in data set [13] (Table 6, cisplatin column) stood at 4.59.

Take `CC(=O)O[C@@]12CO[C@@H]1C[C@H](O)[C@@]1(C)C(=O)[C@H](O)C3=C(C)[C@@H](OC(=O)[C@H](O)[C@@H](NC(=O)OC(C)(C)C)c4ccccc4)C[C@@](O)([C@@H](OC(=O)c4ccccc4)[C@H]21)C3(C)C` [Docetaxel, docetaxel]: the “IC50 Ratio (PC-3/LNCaP/)” value in data set [18] is recorded as 12-20. Further, the values for the half-inhibitory concentration (IC50) in data set [19] and in data set [20] were 0.05 to 0.06 µM and 0.0025 to 0.005 µM, respectively.
